Experimental data published in patent US20120009601A1, “METHODS AND COMPOSITIONS FOR REPROGRAMMING CELLS” (THE GENERAL HOSPITAL CORPORATION, priority 2010, published 2012).
“Also recorded” adds a separate entry of the source.

How the values were obtained:
[1] = tested on: induced hepatocyte-like cells (iHep); test: Generation of human iPS cells (iPS-hHepC) from induced hepatocyte-like cells (iHep); type: cell-based; conditions: 96 hr
Experimental: Human induced pluripotent stem (iPS) cells were generated from the hepatocyte-like cells that had been generated from human hepatoma cells, using 5′-aza-2′-deoxycytidine (5-AZAC) plus trichostatin A (TSA) without Oct3/4 and c-Myc. The iHep were maintained using a medium for Primate ES cell culture supplemented with 40 ng/ml of hepatocytes growth factor and 20 ng/ml of epidermal growth factor. Furthermore, 500 nM 5′-aza-2′ deoxycytidine (5-AZAC), 150 nM trichostatin A (TSA), 1 μM EMD 616452 as an inhibitor for Tgf beta receptor I kinase/activin-like kinase 5 (Alk5) and 0.5 mM valproic acid (VPA) were administered in the Primate ES cell medium for 96 hr. After 14 days, human iPS cells (iPS-hHepC) were established. Oct3/4 was reactivated by 5-AZAC+TSA. Furthermore, Sox2 and Klf4 were reactivated by EMD 616452 and VPA, respectively.

[2] = tested on: human iPS cells that carry mutant p53; test: Evaluation of cancerous risk: microvessel density (MVD) within teratomas from human iPS cell lines in mice; type: in vivo; conditions: cells treated with PRIMA-1 20 μM; teratomas in immunodeficient mice, anti-CD31 immunofluorescence
Description: The various human iPS cell lines (No. 1-No. 4) were inoculated intramuscularly into immunodeficient mice (Rag2^−/− Il2rg^−/−). Then, microvessel density (MVD) was compared within teratomas in mice among each group. Furthermore, for angiogenesis in teratomas from each human iPS cell lines, microvessel density (MVD) per high-powered field (h.p.f.) of teratomas was quantified by human-specific anti-CD31 immunofluorescence. n=3-6; All values were mean±s.e.m.
By using microvessel density analysis (MVD) within SCID mice that were transplanted with ChiPS cell lines, risk evaluation of malignant transformations were performed for human iPS cell lines established by various methods (3) (4) (5) (6), including the results described herein (FIG. 9). […] Then, p53-175N, p53-175S and p53-175D were identified as p53-mutational spots in human iPS cells which carry mutant p53, with codon 175 in human p53 being known as one mutational spot in human cancer (7).

[3] = tested on: human iPS cells which carry mutant p53; test: PRIMA-1 treatment of human iPS cells carrying mutant p53 (p21 expression, p53-dependent apoptosis); type: cell-based; conditions: PRIMA-1 20 μM
Experimental: Next, human iPS cells that carry mutant p53 were selected and treated with PRIMA-1 (20 μM).

[4] = tested on: human iPS cells having wild-types p53; test: PRIMA-1 treatment of human iPS cells carrying wild-type p53 (p53-dependent apoptosis); type: cell-based; conditions: PRIMA-1 20 μM; human iPS cells with wild-type p53

CCCC(CCC)C(=O)O [VPA, valproic acid]
Klf4 reactivation ([1]; 0.5 mM VPA, Primate ES cell medium): reactivated

Cc1cccc(-c2[nH]ncc2-c2ccc3ncccc3n2)n1 [EMD 616452]
Sox2 reactivation ([1]; 1 μM EMD 616452, Primate ES cell medium): reactivated

O=C1C2CCN(CC2)C1(CO)CO [PRIMA-1, 2,2-Bis(hydroxymethyl)-1-azabicyclo[2.2.2]octan-3-one]
MVD in human iPS cells carrying mutant p53 [2]: equivalent to that of human iPS cell lines established by small molecules | induction of p53-dependent apoptosis ([3]; human iPS cells that have mutant p53): induction of p53-dependent apoptosis | expression of p53 target genes p21 ([3]; human iPS cells which carry mutant p53): induced | induction of p53-dependent apoptosis [4]: not observed; also recorded: not found
